Experimental data published in ChEMBL document CHEMBL6114988, “Design, synthesis and biological evaluation of dual CDK9/PARP inhibitors for the treatment of cancer” (Eur J Med Chem, 2025).

Assays:
[1] = target: Poly [ADP-ribose] polymerase 1 (Homo sapiens, UniProt P09874); assay: Inhibition of PARP1 (unknown origin) incubated for 1 hr by ELISA
[2] = target: Cyclin-dependent kinase 9 (Homo sapiens, UniProt P50750)
Description: Inhibition of CDK9 (unknown origin) using lipid substrate incubated for 40 mins in presence of ATP by kinase-Glo plus luminescence assay

[3] = target: CDK9/cyclin T1 (Homo sapiens) (UniProt O60563+P50750); conditions: dose 200.0 nM, time 70.0 min
MDA-MB-231 = assay: cells; conditions: Homo sapiens, MDA-MB-231, 48 h
Description: Antiproliferative activity against human MDA-MB-231 cells assessed as inhibition of cell proliferation incubated for 48 hrs by CCK-8 assay

HeLa = assay: cells; conditions: Homo sapiens, 48 h
Description: Antiproliferative activity against human HeLa cells assessed as inhibition of cell proliferation incubated for 48 hrs by CCK-8 assay

MCF7 = assay: cells; conditions: Homo sapiens, MCF7, 48 h
Description: Antiproliferative activity against human MCF7 cells assessed as inhibition of cell proliferation incubated for 48 hrs by CCK-8 assay

MOLM-13 = assay: Antiproliferative activity against human MOLM-13 cells assessed as inhibition of cell proliferation incubated for 48 hrs by CCK-8 assay; format: functional, cell-based; conditions: MOLM-13, 48 h
MV4-11 = assay: Antiproliferative activity against human MV4-11 cells assessed as inhibition of cell proliferation incubated for 48 hrs by CCK-8 assay; format: functional, cell-based; conditions: MV4-11, 48 h
HCT-116 = assay: cells; conditions: Homo sapiens, HCT-116, 48 h
Description: Antiproliferative activity against human HCT-116 cells assessed as inhibition of cell proliferation incubated for 48 hrs by CCK-8 assay

Sequence of Cyclin-dependent kinase 9 (P50750 whole entry): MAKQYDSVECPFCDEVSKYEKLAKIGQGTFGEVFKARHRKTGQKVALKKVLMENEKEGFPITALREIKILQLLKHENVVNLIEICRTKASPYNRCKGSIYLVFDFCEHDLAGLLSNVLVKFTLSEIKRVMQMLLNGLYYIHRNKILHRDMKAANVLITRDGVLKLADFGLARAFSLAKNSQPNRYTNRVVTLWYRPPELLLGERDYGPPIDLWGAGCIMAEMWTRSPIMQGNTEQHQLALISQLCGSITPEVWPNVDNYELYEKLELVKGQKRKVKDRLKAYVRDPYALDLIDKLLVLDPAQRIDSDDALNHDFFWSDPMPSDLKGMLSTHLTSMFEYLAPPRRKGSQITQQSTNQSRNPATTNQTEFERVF
Sequence of Poly [ADP-ribose] polymerase 1 (P09874 whole entry): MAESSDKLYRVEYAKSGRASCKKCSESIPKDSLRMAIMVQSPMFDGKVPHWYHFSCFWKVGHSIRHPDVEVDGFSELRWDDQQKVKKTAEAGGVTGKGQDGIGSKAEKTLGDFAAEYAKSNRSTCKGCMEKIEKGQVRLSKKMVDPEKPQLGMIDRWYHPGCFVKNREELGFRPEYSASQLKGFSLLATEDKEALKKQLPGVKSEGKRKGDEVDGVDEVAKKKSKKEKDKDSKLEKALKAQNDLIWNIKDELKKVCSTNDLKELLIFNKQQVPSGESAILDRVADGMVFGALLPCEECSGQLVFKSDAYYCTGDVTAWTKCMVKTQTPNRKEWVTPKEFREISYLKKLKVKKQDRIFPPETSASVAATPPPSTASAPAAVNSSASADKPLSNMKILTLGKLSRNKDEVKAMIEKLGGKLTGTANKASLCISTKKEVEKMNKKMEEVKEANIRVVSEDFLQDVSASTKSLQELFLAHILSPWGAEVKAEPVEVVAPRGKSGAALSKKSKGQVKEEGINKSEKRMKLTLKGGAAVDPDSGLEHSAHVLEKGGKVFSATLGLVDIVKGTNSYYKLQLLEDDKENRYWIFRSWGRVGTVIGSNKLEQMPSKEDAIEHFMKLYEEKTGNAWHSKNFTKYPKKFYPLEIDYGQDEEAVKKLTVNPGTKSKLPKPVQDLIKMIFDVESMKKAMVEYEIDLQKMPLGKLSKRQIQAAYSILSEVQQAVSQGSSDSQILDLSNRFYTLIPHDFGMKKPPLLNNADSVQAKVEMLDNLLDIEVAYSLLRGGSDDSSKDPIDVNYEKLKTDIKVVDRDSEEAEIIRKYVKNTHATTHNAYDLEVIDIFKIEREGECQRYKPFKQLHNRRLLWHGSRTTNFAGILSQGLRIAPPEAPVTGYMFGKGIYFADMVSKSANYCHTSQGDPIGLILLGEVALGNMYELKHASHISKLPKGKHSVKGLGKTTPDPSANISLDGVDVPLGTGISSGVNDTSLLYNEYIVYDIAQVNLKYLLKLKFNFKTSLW

O=C(c1cc(Cc2n[nH]c(=O)c3ccccc23)ccc1F)N1CCN(Cc2ccnc(Nc3cc(-c4ccc(F)c5ccoc45)ncn3)c2)CC1 showed an IC50 [1] of 107 nM and an IC50 [2] of 118 nM.
COc1ccc(F)cc1-c1cc(Nc2cc(CN3CCN(C(=O)c4cc(Cc5n[nH]c(=O)c6ccccc56)ccc4F)CC3)ccn2)ncc1F showed an IC50 [1] of 48 nM and an IC50 [2] of 31 nM.
With COc1cc(F)ccc1-c1nc(Nc2cc(CN3CCN(C(=O)c4cc(Cc5n[nH]c(=O)c6ccccc56)ccc4F)CC3)ccn2)ncc1F the IC50 [1] was 91 nM and the IC50 [2] was 2350 nM.
Compound COc1ccc(OC)c(-c2cc(Nc3cc(CN4CCN(C(=O)c5cc(Cc6n[nH]c(=O)c7ccccc67)ccc5F)CC4)ccn3)ncn2)c1 has an IC50 [1] of 14 nM and an IC50 [2] of 315 nM.
For COc1cc(F)ccc1-c1cc(Nc2cc(CN3CCN(C(=O)c4cc(Cc5n[nH]c(=O)c6ccccc56)ccc4F)CC3)ccn2)ncc1F, the IC50 [1] was 43 nM and the IC50 [2] was 17 nM.
In the case of COc1ccc(-c2cc(Nc3cc(CN4CCN(C(=O)c5cc(Cc6n[nH]c(=O)c7ccccc67)ccc5F)CC4)ccn3)ncn2)c(OC)c1, the IC50 [1] is reported as 10 nM, the inhibition [3] is reported as 73.9% and the IC50 (MDA-MB-231) is reported as > 50000 nM. For the same compound, the IC50 (HeLa) was 1210 nM, the IC50 (MCF7) was > 50000 nM and the IC50 (MOLM-13) was 4050 nM. For the same compound, the IC50 (MV4-11) was 1420 nM, the IC50 (HCT-116) was 2520 nM and the IC50 [2] was 29 nM.
